Laboratory results published in patent US5061794A, “Cephalosporin derivatives, and antibacterial agents” (priority 1986, dated 1991).
Structures can show the parent of a compound that is named as a salt. Where two headings read alike, the source gives them in different places.

Experiments:
E. coli CSH(RE45) = assay: microbe, parasite or virus in culture; format: cell-based; settings: Escherichia coli, 16 h, read-out: Minimum Inhibitory Concentration (MIC), *E. coli CSH(RE45), lactamase-producing strain; 10^6 CFU/ml
Outline: (§1)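 Inoculum 10^6 CFU/ml; medium Mueller Hinton agar with graded antibiotic; 37° C./16 h; endpoint MIC (μg/ml).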

E. coli CSH2 (RK1) = assay: microbe, parasite or virus in culture; format: cell-based; settings: Escherichia coli, 16 h, read-out: Minimum Inhibitory Concentration (MIC), *E. coli CSH2 (RK1), lactamase-producing strain; 10^6 CFU/ml
Outline: as §1

E. cloacae 963 = assay: in vitro antibacterial activity, agar plate dilution method (MIC); format: cell-based; settings: 10^6 CFU/ml
Outline: as §1

E. cloacae Nek 39 = assay: as above; format: cell-based; settings: Enterobacter cloacae, NEK39, 16 h, 10^6 CFU/ml
Outline: as §1

E. coli GN5482 = assay: as above; format: cell-based; settings: Escherichia coli, GN5482, 16 h
Outline: as §1

E. coli NIHJ JC2 = assay: as above; format: cell-based; settings: Escherichia coli, NIHJJC2, 16 h, read-out: Minimum Inhibitory Concentration (MIC), E. coli NIHJ JC2, 10^6 CFU/ml, 37° C.
Outline: as §1

K. oxytoca GN10650 = assay: as above; format: cell-based; settings: Klebsiella oxytoca, 10^6 CFU/ml
Outline: as §1

K. pneumoniae No. 42 = assay: as above; format: cell-based; settings: Klebsiella pneumoniae, NO.42, 16 h, read-out: Minimum Inhibitory Concentration (MIC), *K. pneumoniae No. 42, lactamase-producing strain; 10^6 CFU/ml
Outline: as §1

K. pneumoniae PCI-602 = assay: as above; format: cell-based; settings: Klebsiella pneumoniae, PCI602, 16 h, 10^6 CFU/ml
Outline: as §1

M. morganii GN5407 = assay: as above; format: cell-based; settings: Morganella morganii, GN5407, 16 h, read-out: Minimum Inhibitory Concentration (MIC), *M. morganii GN5407, lactamase-producing strain; 10^6 CFU/ml
Outline: as §1

P. vulgaris HX-19 = assay: as above; format: cell-based; settings: Proteus vulgaris, HX19, 16 h, P. vulgaris HX-19; 10^6 CFU/ml; read-out: Minimum Inhibitory Concentration (MIC)
Outline: as §1

P. vulgaris No. 33 = assay: as above; format: cell-based; settings: Proteus vulgaris, NO.33, 16 h, read-out: Minimum Inhibitory Concentration (MIC), *P. vulgaris No. 33, lactamase-producing strain; 10^6 CFU/ml
Outline: as §1

S. aureus 209P NIHJ-JC1 = assay: as above; format: cell-based; settings: Staphylococcus aureus, 16 h, read-out: Minimum Inhibitory Concentration (MIC)
Outline: as §1

S. marcescens IAM 1184 = assay: as above; format: cell-based; settings: Serratia marcescens, IAM1184, 16 h, read-out: Minimum Inhibitory Concentration (MIC)
Outline: as §1

S. marcescens No. 16-2 = assay: as above; format: cell-based; settings: Serratia marcescens, NO.162, 16 h
Outline: as §1

Ps. aeruginosa AK 109 = assay: as above; format: cell-based, Pseudomonas aeruginosa; settings: Pseudomonas aeruginosa, AK109, 16 h, read-out: Minimum Inhibitory Concentration (MIC)
Outline: as §1

Ps. aeruginosa AKR17 = assay: as above; format: cell-based, Pseudomonas aeruginosa; settings: Pseudomonas aeruginosa, read-out: Minimum Inhibitory Concentration (MIC)
Outline: as §1

Ps. aeruginosa IF03445 = assay: as above; format: cell-based, Pseudomonas aeruginosa; settings: Pseudomonas aeruginosa, 10^6 CFU/ml
Outline: as §1

Ps. cepacia 23 = assay: as above; format: cell-based, Pseudomonas cepacia; settings: read-out: Minimum Inhibitory Concentration (MIC)
Outline: as §1

A. calcoaceticus No. 4 = assay: as above; format: cell-based, Acinetobacter calcoaceticus; settings: Acinetobacter calcoaceticus, NO.4, 16 h, A. calcoaceticus No. 4; 10^6 CFU/ml; read-out: Minimum Inhibitory Concentration (MIC)
Outline: as §1

[1] = Enterobacter cloacae, 963, 16 h, read-out: Minimum Inhibitory Concentration (MIC), E. cloacae 963
[2] = read-out: Minimum Inhibitory Concentration (MIC), *E. cloacae Nek 39, lactamase-producing strain
[3] = read-out: Minimum Inhibitory Concentration (MIC)
[4] = GN10650, 16 h, read-out: Minimum Inhibitory Concentration (MIC), *K. oxytoca GN10650, lactamase-producing strain
[5] = read-out: Minimum Inhibitory Concentration (MIC), K. pneumoniae PCI-602
[6] = Ps. aeruginosa AK 109, 10^6 CFU/ml
[7] = IF03445, 16 h, read-out: Minimum Inhibitory Concentration (MIC), Ps. aeruginosa IF03445
[8] = 16 h, Ps. aeruginosa AKR17, 10^6 CFU/ml
[9] = read-out: Minimum Inhibitory Concentration (MIC), *E. coli GN5482, lactamase-producing strain, 10^6 CFU/ml
[10] = K. pneumoniae PCI-602, read-out: Minimum Inhibitory Concentration (MIC)
[11] = 16 h, Ps. aeruginosa IF03445, read-out: Minimum Inhibitory Concentration (MIC)

Row | SMILES | MIC (E. coli CSH(RE45)) | MIC (E. coli CSH2 (RK1)) | MIC (E. cloacae 963; [1]) | MIC (E. cloacae Nek 39; [2]) | MIC (E. coli GN5482; [3]) | MIC (E. coli NIHJ JC2) | MIC (K. oxytoca GN10650; [4]) | MIC (K. pneumoniae No. 42) | MIC (K. pneumoniae PCI-602; [5]) | MIC (M. morganii GN5407) | MIC (P. vulgaris HX-19) | MIC (P. vulgaris No. 33) | MIC (S. aureus 209P NIHJ-JC1) | MIC (S. marcescens IAM 1184) | MIC (S. marcescens No. 16-2; [3]) | MIC (Ps. aeruginosa AK 109; [6]) | MIC (Ps. aeruginosa IF03445; [7]) | MIC (A. calcoaceticus No. 4) | MIC (Ps. aeruginosa AKR17; [8]) | MIC (Ps. cepacia 23; Burkholderia cepacia, 23, 16 h) | also measured
1 | Nc1nc(/C(=N/OCC(=O)O)C(=O)N[C@@H]2C(=O)N3C(C(=O)O)=C(CSc4nnc(-c5ccc(O)c(O)c5)o4)CS[C@H]23)cs1 [compound 10, disodium 78-[2-(2-aminothiazol-4-yl)-2-carboxylatemethoxyiminoacetamido]-3-[5-(3,4-dihydroxyphenyl)-1,3,4-oxadiazol-2-yl]thiomethvl-3-cephem-4-carboxylate] | 0.0125 µg/mL | < 0.006 µg/mL | 0.025 µg/mL | 0.05 µg/mL | 0.39 µg/mL | 0.05 µg/mL | 0.1 µg/mL | 0.025 µg/mL | < 0.006 µg/mL | 0.025 µg/mL | < 0.006 µg/mL | 0.025 µg/mL | 12.5 µg/mL | 0.0125 µg/mL | 0.39 µg/mL | 0.2 µg/mL | 0.39 µg/mL | 0.05 µg/mL | – | – | MIC (Ps. aeruginosa AKR17; AKR17, 16 h): 12.5 µg/mL; MIC (Ps. cepacia 23; Burkholderia cepacia, 16 h, Ps. cepacia 23, 10^6 CFU/ml): < 0.006 µg/mL
2 | CO/N=C(\C(=O)N[C@@H]1C(=O)N2C(C(=O)O)=C(CSc3nc(-c4ccc(O)cc4)cs3)CS[C@H]12)c1csc(N)n1 [compound 10, sodium 7β-[2-(2-aminothiazol-4-yl)-2-methoxyiminoacetamido]-3-[4-(4-hydroxyphenyl)thiazol-2-yl]thiomethyl-3-cephem-4-carboxylate, reference compound] | 0.78 µg/mL | 0.39 µg/mL | 1.56 µg/mL | 3.12 µg/mL | 0.39 µg/mL | 0.78 µg/mL | 3.12 µg/mL | 1.56 µg/mL | < 0.006 µg/mL | 0.78 µg/mL | < 0.006 µg/mL | 0.78 µg/mL | – | 0.78 µg/mL | 3.12 µg/mL | – | 6.25 µg/mL | 50 µg/mL | > 100 µg/mL | 3.12 µg/mL | MIC (S. aureus 209P NIHJ-JC1; S. aureus 209P NIHJ-JC1, 10^6 CFU/ml, 37° C., 16 hours): 0.2 µg/mL; MIC (Ps. aeruginosa AK 109): 12.5 µg/mL
3 | CC(C)(O/N=C(\C(=O)N[C@@H]1C(=O)N2C(C(=O)O)=C(CSc3nc(-c4ccccc4)cs3)CS[C@H]12)c1csc(N)n1)C(=O)O [compound 11, disodium 7β-[2-(2-aminothiazol-4-yl)-2-(1-carboxylate-1-methylethoxyimino)acetamido]-3-(4-phenylthiazol-2-yl) thiomethyl-3-cephem-4-carboxylate, reference compound] | 1.56 µg/mL | 1.56 µg/mL | – | 12.5 µg/mL | – | 3.12 µg/mL | 3.12 µg/mL | 3.12 µg/mL | 0.1 µg/mL | 1.56 µg/mL | < 0.006 µg/mL | 0.78 µg/mL | 3.12 µg/mL | 1.56 µg/mL | – | 50 µg/mL | 12.5 µg/mL | > 100 µg/mL | > 100 µg/mL | 12.5 µg/mL | MIC (E. cloacae 963; Enterobacter cloacae, 16 h, E. cloacae 963, read-out: Minimum Inhibitory Concentration (MIC)): 6.2 µg/mL; MIC (E. coli GN5482; [9]): 1.56 µg/mL; MIC (S. marcescens No. 16-2; read-out: Minimum Inhibitory Concentration (MIC), *S. marcescens No. 16-2, lactamase-producing strain, 10^6 CFU/ml): 6.25 µg/mL
4 | CC(C)(O/N=C(\C(=O)N[C@@H]1C(=O)N2C(C(=O)O)=C(CSc3nc(-c4ccc(O)cc4)cs3)CS[C@H]12)c1csc(N)n1)C(=O)O [compound 12, disodium 7β-[2-(2-aminothiazol-4-yl)-2-(1-carboxylate-1-methylethoxyimino)acetamido]-3-[4-(4-hydroxyphenyl)thiazol-2-yl]thiomethyl-3-cephem-4-carboxylate, reference compound] | 1.56 µg/mL | 1.56 µg/mL | 3.12 µg/mL | 12.5 µg/mL | – | 3.12 µg/mL | 1.56 µg/mL | 3.12 µg/mL | – | 1.56 µg/mL | < 0.006 µg/mL | 0.39 µg/mL | 3.12 µg/mL | 0.78 µg/mL | 12.5 µg/mL | 25 µg/mL | – | 100 µg/mL | > 100 µg/mL | 3.12 µg/mL | MIC (E. coli GN5482; [9]): 1.56 µg/mL; MIC (K. pneumoniae PCI-602; [10]): 0.05 µg/mL; MIC (Ps. aeruginosa IF03445; [11]): 50 µg/mL
5 | CO/N=C(\C(=O)N[C@@H]1C(=O)N2C(C(=O)O)=C(CSc3nc(-c4ccc(OC)c(OC)c4)cs3)CS[C@H]12)c1csc(N)n1 [compound 13, trifluoroacetate, reference compound] | 6.25 µg/mL | 1.56 µg/mL | 12.5 µg/mL | – | 3.12 µg/mL | 6.25 µg/mL | – | 6.25 µg/mL | – | 6.25 µg/mL | 0.05 µg/mL | 3.12 µg/mL | 0.39 µg/mL | 3.12 µg/mL | – | 100 µg/mL | – | 100 µg/mL | > 100 µg/mL | 12.5 µg/mL | MIC (E. cloacae Nek 39; *E. cloacae Nek 39, lactamase-producing strain, read-out: Minimum Inhibitory Concentration (MIC)): 25 µg/mL; MIC (K. oxytoca GN10650; 16 h, *K. oxytoca GN10650, lactamase-producing strain, read-out: Minimum Inhibitory Concentration (MIC)): 25 µg/mL; MIC (K. pneumoniae PCI-602; [10]): 0.05 µg/mL; MIC (S. marcescens No. 16-2; *S. marcescens No. 16-2, lactamase-producing strain, 10^6 CFU/ml, read-out: Minimum Inhibitory Concentration (MIC)): 50 µg/mL; MIC (Ps. aeruginosa IF03445; [11]): > 100 µg/mL
